Two substances from patent publication US20240194290A1, “HIDDEN ANTIBIOTICS IN THE HUMAN PROTEOME” (THE TRUSTEES OF THE UNIVERSITY OF PENNSYLVANIA, priority 2021, published 2024) can be followed below.

Ends that are not written are not given here.

In one test the test system is A. baumannii. Nature of the test: Bacterial resistance development assay (serial passaging). The following applies: after 26 days of serial passaging at sub-inhibitory concentrations. Type of test: cell-based, Acinetobacter baumannii. As to the method: (§1) FIG. 3. Synergy, resistance development and mechanism of action studies of encrypted peptides. […] (FIG. 3B) Evolution of resistance by A. baumannii to encrypted peptides derived from the CUB domain (red) or polymyxin B (gray) after 30 days of serial passaging in liquid nutrient broth. Peptides and antibiotics were used at sub-inhibitory concentrations. Cells were passaged every 48 h. […] (FIG. 3D) Cytoplasmic membrane depolarization effects of the encrypted peptides against A. baumannii. (FIG. 3E) NPN assays showing the effect of encrypted peptides derived from the CUB domain and natriuretic peptide on permeabilization of the outer membrane of A. baumannii.
In any antibiotic discovery effort, it is crucial to assess how readily the molecules identified select for resistance mechanisms in bacteria, as the emergence of resistance has hampered the antibiotic field since its very inception with the discovery of penicillin in 1928^38. To determine whether bacteria become resistant to encrypted peptides, longitudinal resistance assays were performed with peptides derived from the CUB domains 1 and 3 against A. baumannii, using polymyxin B as a control (FIG. 3B).
Methods: Bacterial resistance development assays. The evolution of resistance by A. baumannii cells to encrypted peptides was monitored for 30 days of serial passaging in liquid nutrient broth. […]

The test system of another test is A. baumannii ATCC19606. Briefly: Outer membrane permeabilization (NPN uptake) assay. The following applies: peptides at MIC, compared to untreated control and polymyxin B. Type of test: cell-based, Acinetobacter baumannii. As to the method:
as §1
In order to investigate the mode of action of encrypted peptides against bacterial cells, assays were performed to study their effects on the bacterial membrane. First, the ability of encrypted peptides to disrupt and depolarize the bacterial cytoplasmic membrane was assessed […]. 3,3′-dipropylthiadicarbocyanine iodide [DiSC3(5)] was used, a potentiometric fluorophore that accumulates and aggregates in the cytoplasmic membrane, quenching its fluorescence. Upon imbalances of the cytoplasmic membrane transmembrane potential, the fluorophore migrates to the cytoplasm or the outer environment, generating fluorescence. […]
Methods: Membrane depolarization assays. The cytoplasmic membrane depolarization activity of the peptides was determined by measurements of fluorescence of the membrane potential-sensitive dye, DiSC3(5). […] Thereafter, the cells (100 μL) were incubated for 15 min with 20 nmol L^−1 of DiSC3(5) until a stable reduction of fluorescence was achieved, indicating the incorporation of the dye into the bacterial membrane. Membrane depolarization was then monitored by observing the change in the fluorescence emission intensity of the membrane potential-sensitive dye, DiSC3(5) (λex=622 nm, λem=670 nm), after the addition of peptides (100 μL solution at MIC values). […] The membrane permeability of the peptides was determined by using the N-phenyl-1-napthylamine (NPN) uptake assay. […]

The next test deals with P. aeruginosa PAO1. Nature of the test: Outer membrane permeabilization (NPN uptake) assay. Type of test: cell-based, Pseudomonas aeruginosa. The following applies: peptides at MIC. As to the method: (§2) FIG. 10. Membrane permeabilization and depolarization assays for several bacterial strains. […] FIG. 10B: Cytoplasmic membrane depolarization assays performed against P. aeruginosa PAO1 and the gut commensal B. fragilis ATCC25285.
(§3) Methods: Membrane depolarization assays. The cytoplasmic membrane depolarization activity of the peptides was determined by measurements of fluorescence of the membrane potential-sensitive dye, DiSC3(5). Briefly, A. baumannii ATCC19606, P. aeruginosa PAO1 and B. fragilis ATCC25285 were grown at 37° C. with agitation until they reached mid-log phase (OD600=0.5). […] Thereafter, the cells (100 μL) were incubated for 15 min with 20 nmol L^−1 of DiSC3(5) until a stable reduction of fluorescence was achieved, indicating the incorporation of the dye into the bacterial membrane. Membrane depolarization was then monitored by observing the change in the fluorescence emission intensity of the membrane potential-sensitive dye, DiSC3(5) (λex=622 nm, λem=670 nm), after the addition of peptides (100 μL solution at MIC values). […] The membrane permeability of the peptides was determined by using the N-phenyl-1-napthylamine (NPN) uptake assay. […] The background fluorescence was recorded at λex=350 nm and λem=420 nm. […]

For the next test, the system named is S. epidermidis. Nature of the test: Outer membrane permeabilization (NPN uptake) assay. The test is classed as cell-based, Staphylococcus epidermidis. The settings on record: peptides at MIC. The method, then:
as §2, §3

Another test concerns B. fragilis ATCC25285. Nature of the test: Outer membrane permeabilization (NPN uptake) assay. The test is classed as cell-based, Bacteroides fragilis. The settings on record: peptides at MIC. As to the method: as §2, §3

Turning to polymyxin B, the “increase of concentrations needed to kill A. baumannii” value in the test with A. baumannii is recorded as ≤ 256 fold.
With “natriuretic peptide: peptide hormone responsible for inducing the excretion of sodium by the kidneys (P01160) (SLRRSSCFGGRMDRIGAQSGLGCNSFRY; ends and bridges not checked; cysteine pairing not given here; UniProt P01160 124-151, looked up)”, the “outer membrane permeabilization (NPN fluorescence)” value in the test on A. baumannii ATCC19606 is reported as “increased fluorescence”. Also, the “outer membrane permeabilization (NPN)” value in the test with P. aeruginosa PAO1, in the test with S. epidermidis and with B. fragilis ATCC25285 was “permeabilized” each time.
